The values that follow come from patent US9340590B2 (priority 2011, dated 2016).

Holding throughout (assay): cell-based
One test concerns the target hNav1.7 (Homo sapiens, UniProt Q15858). In kind it is cell-based. Particulars: IonWorks Quattro, read-out: IWQ Use Nav1.7.
Another test deals with hNav1.5 (Homo sapiens, UniProt Q14524).
The next test concerns the target hNav1.3 (Homo sapiens, UniProt Q9NY46). The following applies: IonWorks Quattro, read-out: IWQ Use Nav1.3. Background: Patch clamp records ionic current or voltage across a cell membrane.
Where [1] appears, read: clamped to −110 mV, depolarized to −10 mV, 5 min after compound, n=2.
Setting [2] is: IonWorks Quattro, clamped to −110 mV, depolarized to −10 mV, 5 min after compound, n=2, read-out: IWQ Use Nav1.5.

Where two headings read alike, the source gives them in different places. Positions of bridges follow the written chain, without caps; N, C: chain ends. Non-standard residues stand in square brackets, D forms with d. Residues, ends and D or L forms follow the SMILES beside them. 1Nal = N[C@@H](Cc1cccc2ccccc12)C(=O)O

Sequence of hNav1.5 (Q14524 whole entry, looked up): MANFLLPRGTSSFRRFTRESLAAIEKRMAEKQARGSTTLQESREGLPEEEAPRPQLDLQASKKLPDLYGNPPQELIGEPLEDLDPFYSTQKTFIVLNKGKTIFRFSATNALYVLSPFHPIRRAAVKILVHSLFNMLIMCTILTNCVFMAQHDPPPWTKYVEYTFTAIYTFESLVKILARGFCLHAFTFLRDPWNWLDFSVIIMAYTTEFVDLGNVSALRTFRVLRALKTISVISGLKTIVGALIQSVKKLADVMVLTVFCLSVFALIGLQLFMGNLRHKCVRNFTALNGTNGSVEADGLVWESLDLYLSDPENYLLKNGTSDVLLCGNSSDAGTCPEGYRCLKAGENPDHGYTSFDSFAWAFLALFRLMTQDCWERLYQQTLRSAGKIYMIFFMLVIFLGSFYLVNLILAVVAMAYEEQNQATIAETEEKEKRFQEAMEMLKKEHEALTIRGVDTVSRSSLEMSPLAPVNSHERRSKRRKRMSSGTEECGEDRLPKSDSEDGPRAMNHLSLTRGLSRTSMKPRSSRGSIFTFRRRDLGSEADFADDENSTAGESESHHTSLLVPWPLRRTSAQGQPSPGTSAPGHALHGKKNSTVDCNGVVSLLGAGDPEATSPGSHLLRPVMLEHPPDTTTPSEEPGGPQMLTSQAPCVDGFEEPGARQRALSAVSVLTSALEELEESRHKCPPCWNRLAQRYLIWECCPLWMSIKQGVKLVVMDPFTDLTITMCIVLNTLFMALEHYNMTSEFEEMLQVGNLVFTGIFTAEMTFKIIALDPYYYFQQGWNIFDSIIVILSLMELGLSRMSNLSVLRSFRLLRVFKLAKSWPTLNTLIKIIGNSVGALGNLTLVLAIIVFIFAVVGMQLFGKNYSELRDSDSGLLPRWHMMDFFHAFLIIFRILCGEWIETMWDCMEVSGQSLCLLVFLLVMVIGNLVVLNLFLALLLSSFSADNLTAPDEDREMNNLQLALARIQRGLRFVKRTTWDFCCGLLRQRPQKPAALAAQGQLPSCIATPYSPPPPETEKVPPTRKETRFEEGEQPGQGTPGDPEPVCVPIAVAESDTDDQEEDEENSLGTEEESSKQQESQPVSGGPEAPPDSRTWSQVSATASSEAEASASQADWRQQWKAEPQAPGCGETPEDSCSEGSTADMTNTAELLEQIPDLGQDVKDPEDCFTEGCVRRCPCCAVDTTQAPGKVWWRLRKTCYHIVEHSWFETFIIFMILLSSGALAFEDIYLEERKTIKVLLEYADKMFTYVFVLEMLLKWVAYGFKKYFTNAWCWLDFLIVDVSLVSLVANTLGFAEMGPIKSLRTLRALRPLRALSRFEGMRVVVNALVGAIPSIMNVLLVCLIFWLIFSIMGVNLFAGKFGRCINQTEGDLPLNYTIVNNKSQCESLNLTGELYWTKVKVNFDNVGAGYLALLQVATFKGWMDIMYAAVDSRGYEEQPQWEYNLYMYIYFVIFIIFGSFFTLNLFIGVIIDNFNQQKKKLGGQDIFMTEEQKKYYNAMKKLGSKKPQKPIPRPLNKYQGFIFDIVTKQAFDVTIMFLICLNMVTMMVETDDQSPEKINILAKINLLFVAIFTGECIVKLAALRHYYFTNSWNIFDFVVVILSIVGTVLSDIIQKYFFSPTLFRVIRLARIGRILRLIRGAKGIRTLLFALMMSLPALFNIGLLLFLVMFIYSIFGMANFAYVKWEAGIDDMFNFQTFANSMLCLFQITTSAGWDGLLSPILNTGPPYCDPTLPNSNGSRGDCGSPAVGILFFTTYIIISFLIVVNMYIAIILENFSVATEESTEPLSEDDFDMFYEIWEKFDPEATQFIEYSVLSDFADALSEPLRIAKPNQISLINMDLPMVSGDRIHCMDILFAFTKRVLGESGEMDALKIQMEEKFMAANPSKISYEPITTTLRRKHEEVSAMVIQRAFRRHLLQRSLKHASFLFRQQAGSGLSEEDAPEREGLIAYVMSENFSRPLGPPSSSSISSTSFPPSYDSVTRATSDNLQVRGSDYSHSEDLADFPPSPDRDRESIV
Sequence of hNav1.3 (Q9NY46 whole entry, looked up): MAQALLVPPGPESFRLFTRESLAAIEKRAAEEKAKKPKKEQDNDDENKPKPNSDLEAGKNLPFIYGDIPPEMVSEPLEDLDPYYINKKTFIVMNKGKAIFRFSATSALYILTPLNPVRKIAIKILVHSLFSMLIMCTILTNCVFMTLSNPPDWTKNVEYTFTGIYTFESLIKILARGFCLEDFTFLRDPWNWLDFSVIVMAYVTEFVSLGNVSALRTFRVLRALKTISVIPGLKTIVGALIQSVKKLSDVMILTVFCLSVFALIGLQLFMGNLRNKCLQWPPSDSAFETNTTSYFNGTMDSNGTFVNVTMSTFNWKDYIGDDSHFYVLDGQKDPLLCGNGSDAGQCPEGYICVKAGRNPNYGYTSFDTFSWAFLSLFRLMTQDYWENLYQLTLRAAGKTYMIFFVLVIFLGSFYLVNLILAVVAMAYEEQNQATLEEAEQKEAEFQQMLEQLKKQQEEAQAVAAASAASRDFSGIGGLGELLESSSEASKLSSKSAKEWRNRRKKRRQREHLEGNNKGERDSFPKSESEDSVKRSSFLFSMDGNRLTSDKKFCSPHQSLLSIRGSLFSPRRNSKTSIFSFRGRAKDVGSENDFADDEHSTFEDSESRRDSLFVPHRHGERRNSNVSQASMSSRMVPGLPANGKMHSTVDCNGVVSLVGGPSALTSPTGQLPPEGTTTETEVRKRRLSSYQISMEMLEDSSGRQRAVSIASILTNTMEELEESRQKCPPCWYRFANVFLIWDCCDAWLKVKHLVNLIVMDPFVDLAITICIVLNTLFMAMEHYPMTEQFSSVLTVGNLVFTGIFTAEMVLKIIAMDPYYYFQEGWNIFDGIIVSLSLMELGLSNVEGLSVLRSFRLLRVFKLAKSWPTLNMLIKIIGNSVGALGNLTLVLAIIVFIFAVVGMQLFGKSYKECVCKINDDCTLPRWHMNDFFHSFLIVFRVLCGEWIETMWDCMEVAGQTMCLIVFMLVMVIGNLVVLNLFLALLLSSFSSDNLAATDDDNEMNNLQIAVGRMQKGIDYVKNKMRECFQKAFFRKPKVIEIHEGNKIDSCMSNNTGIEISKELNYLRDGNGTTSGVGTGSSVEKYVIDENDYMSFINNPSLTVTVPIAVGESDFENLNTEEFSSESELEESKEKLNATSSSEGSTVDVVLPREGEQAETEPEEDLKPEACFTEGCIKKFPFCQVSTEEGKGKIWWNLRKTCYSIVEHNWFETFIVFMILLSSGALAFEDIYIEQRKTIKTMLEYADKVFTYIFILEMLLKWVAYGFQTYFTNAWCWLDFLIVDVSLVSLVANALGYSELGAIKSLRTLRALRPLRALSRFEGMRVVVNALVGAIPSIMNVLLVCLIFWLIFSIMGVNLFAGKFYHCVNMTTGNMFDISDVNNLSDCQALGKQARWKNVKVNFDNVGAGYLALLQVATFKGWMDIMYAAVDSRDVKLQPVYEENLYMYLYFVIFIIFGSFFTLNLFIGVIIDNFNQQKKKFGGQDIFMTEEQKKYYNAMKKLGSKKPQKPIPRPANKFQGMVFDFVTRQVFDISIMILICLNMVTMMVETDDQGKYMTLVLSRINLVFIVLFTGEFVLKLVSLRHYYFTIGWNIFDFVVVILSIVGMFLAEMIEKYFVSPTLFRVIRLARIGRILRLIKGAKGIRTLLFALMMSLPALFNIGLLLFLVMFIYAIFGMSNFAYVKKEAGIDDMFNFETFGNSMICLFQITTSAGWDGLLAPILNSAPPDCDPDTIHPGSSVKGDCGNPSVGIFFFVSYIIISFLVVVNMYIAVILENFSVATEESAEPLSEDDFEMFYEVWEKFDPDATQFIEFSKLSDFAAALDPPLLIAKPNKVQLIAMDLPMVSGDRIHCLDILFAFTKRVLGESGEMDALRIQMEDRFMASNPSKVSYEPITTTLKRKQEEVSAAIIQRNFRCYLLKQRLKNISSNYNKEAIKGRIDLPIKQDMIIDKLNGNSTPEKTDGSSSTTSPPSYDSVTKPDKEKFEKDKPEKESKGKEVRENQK

Consider `CC[C@H](C)[C@@H]1NC(=O)[C@@H]2CSSC[C@@H]3NC(=O)[C@H](C(C)C)NC(=O)[C@H](CC(C)C)NC(=O)[C@H](CC(N)=O)NC(=O)[C@@H]4CCCN4C(=O)[C@H](CCCNC(=N)N)NC(=O)[C@H](CSSC[C@H](NC(=O)[C@@H](N)CC(=O)O)C(=O)N[C@@H](CCCCN)C(=O)NCC(=O)N[C@@H](Cc4ccccc4)C(=O)N[C@@H](CCSC)C(=O)N[C@@H](CCCNC(=N)N)C(=O)N[C@@H](CCCCN)C(=O)N2)NC(=O)[C@H](CSSC[C@@H](C(=O)N[C@@H](CCCCN)C(=O)N[C@@H](Cc2ccc(O)cc2)C(=O)N[C@H](C(=O)N[C@@H](Cc2ccccc2)C(N)=O)C(C)C)NC(=O)[C@H](Cc2c[nH]c4ccccc24)NC(=O)[C@H](CCCCN)NC(=O)[C@H](Cc2cnc[nH]2)NC(=O)[C@H]([C@@H](C)O)NC(=O)[C@H](CCCNC(=N)N)NC(=O)[C@H](CO)NC3=O)NC(=O)[C@H](CCCCN)NC(=O)[C@H](CC(=O)O)NC(=O)[C@H](CC(N)=O)NC(=O)[C@H](CC(=O)O)NC(=O)[C@@H]2CCCN2C1=O` [SEQ ID NO: 38] (H-DCKGFMRKCIPDNDKCCRPNLVCSRTHKWCKYVF-NH2; disulfide 2-17, 9-23, 16-30), for which the IC50 was 80 nM on hNav1.7 (setting [1]), 6.95 µM at hNav1.5 (setting [2]) and 60 nM on hNav1.3 (setting [1]).
On to `CC[C@H](C)[C@@H]1NC(=O)[C@@H]2CSSC[C@@H]3NC(=O)[C@H](C(C)C)NC(=O)[C@H](CC(C)C)NC(=O)[C@H](CC(N)=O)NC(=O)[C@@H]4CCCN4C(=O)[C@H](CCCNC(=N)N)NC(=O)[C@H](CSSC[C@H](NC(=O)[C@@H](N)CC(=O)O)C(=O)N[C@@H](CC(C)C)C(=O)NCC(=O)N[C@@H](C(C)C)C(=O)N[C@@H](CC(C)C)C(=O)N[C@@H](CCCNC(=N)N)C(=O)N[C@@H](CCCCN)C(=O)N2)NC(=O)[C@H](CSSC[C@@H](C(=O)N[C@@H](CCCCN)C(=O)N[C@@H](Cc2ccc(O)cc2)C(=O)N[C@H](C(=O)N[C@@H](Cc2ccccc2)C(N)=O)C(C)C)NC(=O)[C@H](Cc2c[nH]c4ccccc24)NC(=O)[C@H](CCCCN)NC(=O)[C@H](Cc2c[nH]cn2)NC(=O)[C@H]([C@@H](C)O)NC(=O)[C@H](CCCNC(=N)N)NC(=O)[C@H](CO)NC3=O)NC(=O)[C@H](CCCCN)NC(=O)[C@H](CC(=O)O)NC(=O)[C@H](CC(N)=O)NC(=O)[C@H](CC(=O)O)NC(=O)[C@@H]2CCCN2C1=O` [compound 644] (H-DCLGVLRKCIPDNDKCCRPNLVCSRTHKWCKYVF-NH2; disulfide 2-17, 9-23, 16-30), for which the IC50 is 150 nM at hNav1.7 (use-dependent protocol, hNav1.7); more than 5 µM on hNav1.5 (IonWorks Quattro, use-dependent protocol, hNav1.5, read-out: IWQ Use Nav1.5); 480 nM at hNav1.3 (use-dependent protocol, hNav1.3).
With `CC[C@H](C)[C@@H]1NC(=O)[C@@H]2CSSC[C@@H]3NC(=O)[C@H](C(C)C)NC(=O)[C@H](CC(C)C)NC(=O)[C@H](CC(N)=O)NC(=O)[C@@H]4CCCN4C(=O)[C@H](CCCNC(=N)N)NC(=O)[C@H](CSSC[C@H](NC(=O)[C@@H](N)CC(=O)O)C(=O)N[C@@H](CC(C)C)C(=O)NCC(=O)N[C@@H](Cc4c[nH]c5ccccc45)C(=O)N[C@@H](CCSC)C(=O)N[C@@H](CCCNC(=N)N)C(=O)N[C@@H](CCCCN)C(=O)N2)NC(=O)[C@H](CSSC[C@@H](C(=O)N[C@@H](CCCCN)C(=O)N[C@@H](Cc2ccc(O)cc2)C(=O)N[C@H](C(=O)N[C@@H](Cc2ccccc2)C(N)=O)C(C)C)NC(=O)[C@H](Cc2c[nH]c4ccccc24)NC(=O)[C@H](CCCCN)NC(=O)[C@H](Cc2cnc[nH]2)NC(=O)[C@H]([C@@H](C)O)NC(=O)[C@H](CCCNC(=N)N)NC(=O)[C@H](CO)NC3=O)NC(=O)[C@H](CCCCN)NC(=O)[C@H](CC(=O)O)NC(=O)[C@H](CC(N)=O)NC(=O)[C@H](CC(=O)O)NC(=O)[C@@H]2CCCN2C1=O` [SEQ ID NO: 82] (H-DCLGWMRKCIPDNDKCCRPNLVCSRTHKWCKYVF-NH2; disulfide 2-17, 9-23, 16-30), the IC50 stood at 150 nM at hNav1.7 (setting [1]), 9.32 µM at hNav1.5 (setting [2]) and 110 nM on hNav1.3 (setting [1]).
Regarding `CC[C@H](C)[C@@H]1NC(=O)[C@@H]2CSSC[C@@H]3NC(=O)[C@H](C(C)C)NC(=O)[C@H](CC(C)C)NC(=O)[C@H](CC(N)=O)NC(=O)[C@@H]4CCCN4C(=O)[C@H](CCCNC(=N)N)NC(=O)[C@H](CSSC[C@H](NC(=O)[C@@H](N)CC(=O)O)C(=O)N[C@@H](CC(C)C)C(=O)NCC(=O)N[C@@H](Cc4ccccc4)C(=O)N[C@@H](CCSC)C(=O)N[C@@H](CCCNC(=N)N)C(=O)N[C@@H](CCCCN)C(=O)N2)NC(=O)[C@H](CSSC[C@@H](C(=O)N[C@@H](CCCCN)C(=O)N[C@@H](Cc2cccc4ccccc24)C(=O)N[C@H](C(=O)N[C@@H](Cc2ccccc2)C(N)=O)C(C)C)NC(=O)[C@H](Cc2c[nH]c4ccccc24)NC(=O)[C@H](CCCCN)NC(=O)[C@H](Cc2c[nH]cn2)NC(=O)[C@H](CC(C)C)NC(=O)[C@H](CCCNC(=N)N)NC(=O)[C@H](CO)NC3=O)NC(=O)[C@H](CCCCN)NC(=O)[C@H](CC(=O)O)NC(=O)[C@H](CC(N)=O)NC(=O)[C@H](CC(=O)O)NC(=O)[C@@H]2CCCN2C1=O` [compound 453] (H-DCLGFMRKCIPDNDKCCRPNLVCSRLHKWCK[1Nal]VF-NH2; disulfide 2-17, 9-23, 16-30), the IC50 at hNav1.7 (use-dependent block, hNav1.7) was 10 nM; at hNav1.5 (IonWorks Quattro, use-dependent block, hNav1.5, read-out: IWQ Use Nav1.5) it was more than 5 µM; at hNav1.3 (use-dependent block, hNav1.3) it was 10 nM.
`CC[C@H](C)[C@@H]1NC(=O)[C@@H]2CSSC[C@@H]3NC(=O)[C@H](C(C)C)NC(=O)[C@H](CC(C)C)NC(=O)[C@H](CC(N)=O)NC(=O)[C@@H]4CCCN4C(=O)[C@H](CCCNC(=N)N)NC(=O)[C@H](CSSC[C@H](NC(=O)[C@@H](N)CC(=O)O)C(=O)N[C@@H](CC(C)C)C(=O)NCC(=O)N[C@@H](Cc4ccccc4)C(=O)N[C@@H](CCSC)C(=O)N[C@@H](CCCNC(=N)N)C(=O)N[C@@H](CCCCN)C(=O)N2)NC(=O)[C@H](CSSC[C@@H](C(=O)N[C@@H](CCCCN)C(=O)N[C@@H](Cc2ccc(O)cc2)C(=O)N[C@H](C(=O)N[C@@H](Cc2ccccc2)C(N)=O)C(C)C)NC(=O)[C@H](Cc2c[nH]c4ccccc24)NC(=O)[C@H](CCCCN)NC(=O)[C@H](Cc2cnc[nH]2)NC(=O)[C@H](CCCNC(=N)N)NC(=O)[C@H](CCCNC(=N)N)NC(=O)[C@H](CO)NC3=O)NC(=O)[C@H](CCCCN)NC(=O)[C@H](CC(=O)O)NC(=O)[C@H](CC(N)=O)NC(=O)[C@H](CC(=O)O)NC(=O)[C@@H]2CCCN2C1=O` [compound 70] (H-DCLGFMRKCIPDNDKCCRPNLVCSRRHKWCKYVF-NH2; disulfide 2-17, 9-23, 16-30): the IC50 at hNav1.7 (Table 22, use, […]) worked out at 30 nM; against hNav1.5 (IWQ Use Nav1.5 (μM)) it was 3.06 µM; on hNav1.3 (Table 22, use, […]), 8 nM.
